Measured values: PubChem BioAssay (NCI)
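Here, GI50 denotes the concentration required for 50% inhibition of growth. TGI: total growth inhibition.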

How the values were obtained:
Assay in all cases: DTP human tumour cell line panel, 384-well format
[1] = test system: HOP-62 NSCLC
[2] = test system: TK-10 renal
[3] = test system: SNB-19 CNS
[4] = test system: HT29 colon
[5] = test system: EKVX NSCLC
[6] = test system: MOLT-4 leukemia
[7] = test system: MCF7 breast
[8] = test system: SF-539 CNS
[9] = test system: MALME-3M melanoma
[10] = test system: NCI-H23 lung
[11] = test system: DU-145 prostate
[12] = test system: SK-MEL-2 melanoma
[13] = test system: SN12C renal
[14] = test system: UO-31 renal
[15] = test system: HCT-116 colon
[16] = test system: SW-620 colon
[17] = test system: OVCAR-3 ovarian
[18] = test system: SF-295 CNS
[19] = test system: MDA-MB-231 breast
[20] = test system: ACHN renal
[21] = test system: MDA-MB-435 melanoma
[22] = test system: COLO 205 colon
[23] = test system: A549 NSCLC
[24] = test system: HL-60(TB) leukemia
[25] = test system: LOX IMVI melanoma
[26] = test system: MDA-MB-468 breast
[27] = test system: SK-OV-3 ovarian
[28] = test system: M14 melanoma
[29] = test system: SR leukemia
[30] = test system: CCRF-CEM leukemia
[31] = test system: A498 renal
[32] = test system: SK-MEL-28 melanoma
[33] = test system: IGROV1 ovarian
[34] = test system: BT-549 breast
[35] = test system: SK-MEL-5 melanoma
[36] = test system: NCI-H522 lung
[37] = test system: PC-3 prostate
[38] = test system: RPMI-8226 leukemia
[39] = test system: OVCAR-8 ovarian
[40] = test system: U251 glioblastoma
[41] = test system: OVCAR-4 ovarian
[42] = test system: RXF 393 renal
[43] = test system: NCI-H322M lung
[44] = test system: NCI-H226 lung
[45] = test system: SNB-75 CNS
[46] = test system: HCT-15 colon
[47] = test system: HOP-92 NSCLC

O=S(=O)(c1ccc2c(c1)C(=NO)c1cc(S(=O)(=O)N3CCCCC3)ccc1-2)N1CCCCC1
GI50 [1]: 97.6 nM | TGI [1]: 216 nM | GI50 [2]: 187 nM | TGI [2]: 336 nM | GI50 [3]: 189 nM | TGI [3]: 332 nM | GI50 [4]: 184 nM | TGI [4]: 326 nM | GI50 [5]: 115 nM | TGI [5]: 241 nM | GI50 [6]: 168 nM | TGI [6]: 306 nM | GI50 [7]: 187 nM | TGI [7]: 334 nM | GI50 [8]: 174 nM | TGI [8]: 317 nM | GI50 [9]: 179 nM | TGI [9]: 321 nM | GI50 [10]: 92.7 nM | TGI [10]: 228 nM | GI50 [11]: 177 nM | TGI [11]: 318 nM | GI50 [12]: 196 nM | TGI [12]: 339 nM | GI50 [13]: 181 nM | TGI [13]: 323 nM | GI50 [14]: 16 nM | TGI [14]: 29.8 nM | GI50 [15]: 173 nM | TGI [15]: 316 nM | GI50 [16]: 182 nM | TGI [16]: 323 nM | GI50 [17]: 146 nM | TGI [17]: 281 nM | GI50 [18]: 176 nM | TGI [18]: 316 nM | GI50 [19]: 139 nM | TGI [19]: 270 nM | GI50 [20]: 17.6 nM | TGI [20]: 31.6 nM | GI50 [21]: 183 nM | TGI [21]: 323 nM | GI50 [22]: 184 nM | TGI [22]: 325 nM | GI50 [23]: 171 nM | TGI [23]: 315 nM | GI50 [24]: 16.9 nM | TGI [24]: 30.9 nM | GI50 [25]: 17.2 nM | TGI [25]: 32 nM | GI50 [26]: 58.4 nM | TGI [26]: 171 nM | GI50 [27]: 169 nM | TGI [27]: 308 nM | GI50 [28]: 170 nM | TGI [28]: 308 nM | GI50 [29]: 158 nM | TGI [29]: 294 nM | GI50 [30]: 82.5 nM | TGI [30]: 205 nM | GI50 [31]: 1490 nM | TGI [31]: 3.1 µM | GI50 [32]: 171 nM | TGI [32]: 309 nM | GI50 [33]: 162 nM | TGI [33]: 306 nM | GI50 [34]: 179 nM | TGI [34]: 319 nM | GI50 [35]: 184 nM | TGI [35]: 359 nM | GI50 [36]: 172 nM | TGI [36]: 314 nM | GI50 [37]: 165 nM | TGI [37]: 303 nM | GI50 [38]: 106 nM | TGI [38]: 226 nM | GI50 [39]: 153 nM | TGI [39]: 288 nM | GI50 [40]: 189 nM | TGI [40]: 341 nM | GI50 [41]: 17.9 nM | TGI [41]: 34.4 nM | GI50 [42]: 118 nM | TGI [42]: 242 nM | GI50 [43]: 178 nM | TGI [43]: 320 nM | GI50 [44]: 168 nM | TGI [44]: 309 nM | GI50 [45]: 184 nM | TGI [45]: 324 nM | GI50 [46]: 186 nM | TGI [46]: 333 nM | GI50 [47]: 116 nM | TGI [47]: 242 nM
